US20130079493A1, “Method for prepairing peptide inhibitors of a lipid-activated enzyme and peptides produced by same” (ESTAJA OY, priority 2010, published 2013)
Where no end group is shown, it is not given here.

Assays:
[1] = target: T1, human phospholipase A2, content of tears (P14555) (Homo sapiens, UniProt P14555); assay: Activity of human tear phospholipase A2 towards C28-O-PHPM in the presence of peptide (pyrene monomer fluorescence); type: biochemical; conditions: 2 nM enzyme, 40 nM or 80 nM peptide; FIG. 2
T1 construct: Reaction mixture contained 2 nM of phospholipase of human tears; from tissue; host or cells: human tear fluid
T1 sequence (P14555 21-144): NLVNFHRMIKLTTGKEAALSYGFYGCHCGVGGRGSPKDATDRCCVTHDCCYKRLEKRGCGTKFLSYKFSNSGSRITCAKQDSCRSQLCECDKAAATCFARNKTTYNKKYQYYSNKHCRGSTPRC
Procedure: Activity of secretory phospholipase A2 (Apis mellifica) of class III towards C28—O—PHPM was measured in the presence of peptide KMYFNLI (SEQ ID NO:1). Reaction mixture contained 2 nM of phospholipase A2, 2 nM or 4 nM of the peptide and 1.25 μM C28—O—PHPM (1-octacosanyl-2-(6-pyren-1-yl)hexanoyl-sn-glycero-3-phosphatidylmethanol) in 2.0 ml of 5 mM HEPES, 0.1 mM EDTA, 1 mM CaCl2, pH 7.4 at 37° C. with stirring. The assay was performed with or without preincubation step. The enzymatic reaction was followed by measuring the pyrene monomer fluorescence intensity at 400 nm using a spectrofluorometer. Excitation wavelength was 343 nm and the excitation and emission slits were 10 nm.
Activity of human phospholipase A2, content of tears (P14555), was measured in the presence of peptide AALSYGFYG (SEQ ID NO:68). Reaction mixture contained 2 nM of phospholipase of human tears, 40 nM or 80 nM of the peptide and 1.25 μM C28—O—PHPM (1-octacosanyl-2-(6-pyren-1-yl)hexanoyl-sn-glycero-3-phosphatidylmethanol) in 2.0 ml of 5 mM HEPES, 0.1 mM EDTA, 1 mM CaCl2, pH 7.4 at 37° C. with stirring. The assay was performed with or without preincubation step. The enzymatic reaction was followed as described in Example 2.

[2] = target: secretory phospholipase A2 (Apis mellifica) of class III (Apis mellifera, UniProt P00630)
Sequence of secretory phospholipase A2 (Apis mellifica) of class III (P00630 34-167 limits assumed): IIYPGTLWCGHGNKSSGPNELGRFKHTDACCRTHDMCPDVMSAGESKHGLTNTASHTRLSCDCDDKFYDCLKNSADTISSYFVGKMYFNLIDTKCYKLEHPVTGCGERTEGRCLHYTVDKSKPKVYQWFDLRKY

| Substance | inhibition of tear fluid PLA2 activity [1] | inhibition of bee venom PLA2 enzyme [2] | peptide concentration at which inhibition was observed [2] |
| --- | --- | --- | --- |
| AALSYGFYG (not fully specified (C-terminus); listed as Homo sapiens) [synthetic peptide corresponding to residues 17-25 of human secretory PLA2 present in tear fluid] | inhibited | – | – |
| KMYFNLI | – | complete inhibition | 2 nM |
